Test results: patent US7632819B1, “Methods and compositions for inhibiting PKC delta cleavage for treatment and prevention of neurodegeneration and apoptosis” (Iowa State University Research Foundation, Inc., priority 2004, dated 2009)
Read-outs that look alike come from different tables or passages of the source. The star is where a group is joined. Cbz = O=C(OCc1ccccc1)*; CH2F = FC*

Legend:
N27 cells = conditions: for increase in DNA fragmentation compared to untreated cells: toxin alone
Procedure: […] Z is the abbreviation for N-benzyloxycarbonyl. Untreated cells were used as control samples. After the treatment, the cells were collected by trypsinization (Trypsin 0.25%, 1 mM EDTA), centrifuged at 200×g for 5 min, washed with PBS twice, then lysed. The lysate was used for DNA fragmentation assay.
DNA fragmentation assays were performed using a recently developed Cell Death Detection ELISA Plus Assay Kit. This is a fast, highly sensitive and reliable assay for the detection of early changes in apoptotic cell death. After treatments, 20 μl of cell lysate was processed according to the manufacturer's protocol. The assay solution consisted of a mixture of anti-histone biotin and anti-DNA-HRP directed against various histones and antibodies to both single stranded DNA and double stranded DNA, the major constituents of nucleosomes. After 2 hr incubation, unbound components were removed by washing with the incubation buffer supplied with the kit. Quantification of the nucleosomes retained by anti-DNA-HRP in the immunocomplex was determined spectrophotometrically with ABTS (2,2′-azino-di[3-ethoxybenzyl thiazoline sulfonate) as a HRP substrate (supplied with the kit). Measurements were made at 405 nm against an ABTS solution as a blank (reference wave length 490 nm).
(§1) Chemicals. Protease cocktail, ATP, protein-A-sepharose, protein-G-sepharose and anti-â-actin antibody were obtained from Sigma-Aldrich (St. Louis, Mo.); mouse tyrosine hydroxylase antibody was purchased from Chemicon (Temecula, Calif.); the rabbit polyclonal antibody for tyrosine hydroxylase was obtained from Calbiochem Bioscience, Inc. (King of Prussia, Pa.); rabbit PKCδ antibody was purchased from Santa Cruz Biotechnology, Inc. (Santa Cruz, Calif.); anti-rabbit and anti-mouse secondary antibodies and the ECL chemiluminescence kit were purchased from Amersham Pharmacia Biotech. (Piscataway, N.J.). Alexa 488 conjugated antirabbit/mouse, Cy3 conjugated anti-rabbit/mouse antibody and Hoechst 33342 were purchased from Molecular Probes, Inc. (Eugene, Oreg.). [ã-32P]ATP was purchased from Perkin Elmer Life Science Products (Boston, Mass.). The Bradford protein assay kit was purchased from Bio-Rad Laboratories (Hercules, Calif.). RPMI, fetal bovine serum, -glutamine, penicillin, and streptomycin were purchased from Invitrogen (Gaithersburg, Md.). Quantity One 4.2.0 software was purchased from Bio-Rad. Design and synthesis of z-DIPD-fmk (SEQ ID NO:5). To develop a cell permeable peptide inhibitor to specifically block PKCδ cleavage, we designed the tetrapeptide Asp-Ile-Pro-Asp (DIPD) (SEQ ID NO:5) corresponding to position 324-327 in rat PKCδ cDNA representing the caspase-3 cleavage site. Since this peptide is directed against the caspase-3 cleavage site of PKCδ, it should prevent the proteolytic cleavage and activation of PKCδ mediated by caspase-3. The custom synthesis of the tetrapeptide Z-Asp(OMe)-Ile-Pro-Asp(OMe)-FMK (SEQ ID NO:5) was performed at MP Biomedicals (Irvine, Calif.), a quality company that specializes in developing cell permeable peptide inhibitors directed against apoptosis cell signaling molecules. Briefly, the synthesis was performed with the reaction of Boc-D(OMe)-OH with MBFM (Magnesium benzyl fluoromalonate) to produce Beta-Keto fluoroester, followed by hydrogenation with Pd/c to produce Boc-D(OMe)FK, which was converted into Tfa salt using trifluoroacetic acid. Coupling of Tfa salt with Z-D(OMe)—I—P—OH in DMF with HOBT, HBTU DIEA and workup produced a crude product which was purified by column chromatography over silica gel. Elution with EtOAC:MeOH 95:5 gave pure fractions which were mixed and dried. Crystallization with EtOAC/Hexane, filtration and drying produced the pure product. Animals.

[1] = MTT cytotoxicity assay, MPP+- and 6-OHDA-induced cytotoxicity; conditions: rat
Source text: as §1, with “Briefly, the synthesis was performed with the reaction of Boc-D(OMe)-OH with MBFM (Magnesium benzyl fluoromalonate) to produce Beta-Keto fluoroester, followed by hydrogenation with Pd/c to produce Boc-D(OMe)FK, which was converted into Tfa salt using trifluoroacetic acid. Coupling of Tfa salt with Z-D(OMe)—I—P—OH in DMF with HOBT, HBTU DIEA and workup produced a crude product which was purified by column chromatography over silica gel. Elution with EtOAC:MeOH 95:5 gave pure fractions which were mixed and dried. Crystallization with EtOAC/Hexane, filtration and drying produced the pure product. Animals.” left out

PKCδ = assay: Immunoprecipitation kinase assay (histone H1 phosphorylation) in N27 cells; format: cell-based, rat; conditions: toxin alone
Source text: as §1, with “Animals. Time-pregnant C57/bL mice were housed under standard conditions: constant temperature (22±1° C.), humidity (relative, 30%) and a 12-h light/dark cycle with free access to food and water. The animals and protocol procedures were approved and supervised by the Committee on Animal Care (COAC) at Iowa State University. Cell culture. […]” for “Animals.”

caspase-3 [2] = target: T1, caspase-3 (Rattus norvegicus, UniProt P55213); assay: Caspase-3 activity assay with fluorogenic substrate Ac-DEVD-AFC in treated N27 cells; format: cell-based; conditions: toxin alone
T1 construct: N27 cells were exposed to either MPP^+ or 6-OHDA in the absence or presence of z-DIPD-fmk; endogenous in cells; host or cells: N27 rat mesencephalic dopaminergic neuronal cells
T1 sequence (P55213 29-175 limits assumed): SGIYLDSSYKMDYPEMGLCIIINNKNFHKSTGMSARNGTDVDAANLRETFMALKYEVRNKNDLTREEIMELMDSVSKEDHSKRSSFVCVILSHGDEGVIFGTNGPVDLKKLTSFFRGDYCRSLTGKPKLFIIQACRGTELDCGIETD
T1 sequence (P55213 176-277 limits assumed): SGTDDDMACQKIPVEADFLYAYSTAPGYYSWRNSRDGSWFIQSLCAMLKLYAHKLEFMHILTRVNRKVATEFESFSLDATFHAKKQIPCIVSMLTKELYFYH
Source text: as §1, with “Animals. Time-pregnant C57/bL mice were housed under standard conditions: constant temperature (22±1° C.), humidity (relative, 30%) and a 12-h light/dark cycle with free access to food and water. The animals and protocol procedures were approved and supervised by the Committee on Animal Care (COAC) at Iowa State University. Cell culture. Rat mesencephalic dopaminergic neuronal (N27) cells were cultured as described earlier (Anantharam et al., 2002). Briefly, cells were grown in RPMI 1640 medium containing 10% fetal bovine serum, 2 mM L-glutamine, 50 units of penicillin, and 50 μg/ml streptomycin. Cells were maintained in a humidified atmosphere of 5% CO2 at 37° C. Primary mesencephalic neuronal cultures were prepared from the ventral mesencephalon of gestational 18-day-old mice embryos as described previously (Yang et al., 2004). Mesencephalic tissues were dissected and maintained in ice-cold Ca2+-free HBSS and then dissociated in HBSS solution containing trypsin-EDTA (0.25%) for 20 min at 37° C. […]” for “Animals.”

[3] = test system: N27 mesencephalic neuronal cells; assay: MTT cytotoxicity assay, MPP+- and 6-OHDA-induced cytotoxicity; conditions: N27 cells, 300 μM MPP+ 36 hr, toxin alone
Source text: as §1, with “Briefly, the synthesis was performed with the reaction of Boc-D(OMe)-OH with MBFM (Magnesium benzyl fluoromalonate) to produce Beta-Keto fluoroester, followed by hydrogenation with Pd/c to produce Boc-D(OMe)FK, which was converted into Tfa salt using trifluoroacetic acid. Coupling of Tfa salt with Z-D(OMe)—I—P—OH in DMF with HOBT, HBTU DIEA and workup produced a crude product which was purified by column chromatography over silica gel. Elution with EtOAC:MeOH 95:5 gave pure fractions which were mixed and dried. Crystallization with EtOAC/Hexane, filtration and drying produced the pure product. Animals.” left out

caspase-3 [4] = target: T2, caspase-3 (rat, UniProt P55213 29-277, limits assumed); assay: cell-based or functional assay
T2 sequence (looked up): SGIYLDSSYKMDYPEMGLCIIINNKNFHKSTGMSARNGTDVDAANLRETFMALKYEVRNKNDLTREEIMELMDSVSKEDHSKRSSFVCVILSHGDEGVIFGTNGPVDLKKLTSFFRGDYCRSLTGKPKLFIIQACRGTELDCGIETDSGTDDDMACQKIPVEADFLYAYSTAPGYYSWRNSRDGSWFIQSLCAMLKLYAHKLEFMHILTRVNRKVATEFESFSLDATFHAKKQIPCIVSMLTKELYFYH

With `COC(=O)CC[C@H](NC(=O)[C@H](CC(=O)OC)NC(=O)OCc1ccccc1)C(=O)N[C@H](C(=O)N[C@@H](CC(=O)OC)C(=O)CF)C(C)C` [z-DEVD-fmk, Asp-Glu-Val-Asp-FMK, reference compound] the “effect on 6-OHDA-induced DNA fragmentation / apoptotic cell death” value (N27 cells; 100 μM 6-OHDA 24 hr, concentration not stated or dose-response 1-50 μM) was “dose dependently blocked” and the IC50 (N27 cells; read-out: IC50, 6-OHDA-induced DNA fragmentation (apoptotic cell death), 100 μM 6-OHDA 24 hr, inhibitor 1-50 μM) was 18 µM.

With `NCCc1cc(O)c(O)cc1O` [6-OHDA, 6-hydroxydopamine, reference compound] the cytotoxicity at 24 h, 100 μM [1] was over 60%, the “increase in PKCδ enzymatic activity over the untreated cells” value (PKCδ; 100 μM 6-OHDA 24 hr) was 235% and the “increase in caspase-3 enzyme activity” value (caspase-3 [2]; 100 μM 6-OHDA 24 hr) was about 2.5 fold. The “increase in DNA fragmentation compared to untreated cells” value (N27 cells; 100 μM 6-OHDA 24 hr) was 93%.

With `C[n+]1ccc(-c2ccccc2)cc1` [MPP^+, 1-methyl-4-phenylpyridinium, reference compound] the “loss of cell viability (MTT)” value [3] was “more than 40%”, the “increase in PKCδ enzymatic activity over the untreated cells” value (PKCδ; 300 μM MPP+ 36 hr) was 333% and the “increase in caspase-3 enzyme activity” value (caspase-3 [2]; 300 μM MPP+ 36 hr) was about 2.5 fold. The “increase in DNA fragmentation compared to untreated cells” value (N27 cells; 300 μM MPP+ 36 hr) was 75%.

B1: z-DEVD-fmk (Asp-Glu-Val-Asp-FMK) (peptide)
peptide: Cbz-DEVD-CH2F
SMILES: CC(C)[C@H](NC(=O)[C@H](CCC(=O)O)NC(=O)[C@H](CC(=O)O)NC(=O)OCc1ccccc1)C(=O)N[C@@H](CC(=O)O)C(=O)CF
In the case of B1, the “IC50 for inhibition of 6-OHDA-induced DNA fragmentation (Cell Death Detection ELISA) in N27 cells” value (caspase-3 [4]) is reported as 18 µM.

B2: Z-Asp(OMe)-Ile-Pro-Asp(OMe)-FMK (N-benzyloxycarbonyl-Asp(OMe)-Ile-Pro-Asp(OMe)-fluoromethyl ketone) (peptide)
peptide: Cbz-D(OMe)IPD(OMe)-CH2F
SMILES: CC[C@H](C)[C@H](NC(=O)[C@H](CC(=O)OC)NC(=O)OCc1ccccc1)C(=O)N1CCC[C@H]1C(=O)N[C@@H](CC(=O)OC)C(=O)CF
For B2, the “IC50 for inhibition of 6-OHDA-induced DNA fragmentation (Cell Death Detection ELISA) in N27 cells” value (caspase-3 [4]) was 6 µM.
